# pEC50: −log10 of the molar value.
# System: Respiratory Syncytial Virus
# Assay: In vitro screening for activity against Respiratory Syncytial Virus (MTT tetrazolium colorimetric assay, HeLa cells)
# Assay type: cell-based
# Conditions: activity category; protection against RSV cytopathology in HeLa cells, 7 days after infection
# Description: The percent protection against cytopathology caused by viruses (antiviral activity or EC50) achieved by tested compounds and their cytotoxicity (CC50) are both calculated from dose-response curves. The selectivity of the antiviral effect is represented by the selectivity index (SI), calculated by dividing the CC50 (cytotoxic dose for 50% of the cells) by the EC50 (antiviral activity for 50% of the cells). The tables in the above experimental part list the category to which each of the prepared compounds belong. Compounds belonging to activity category “A” have an pEC50 (−log of EC50 when expressed in molar units) equal to or more than 7. Compounds belonging to activity category “B” have a pEC50 value between 6 and 7.
# Automated tetrazolium-based […] assays were used for determination of EC50 and CC50 of test compounds. Flat-bottom, 96-well plastic microtiter trays were filled with 180 μl of Eagle's Basal Medium, supplemented with 5% FCS (0% for FLU) and 20 mM Hepes buffer. Subsequently, stock solutions (7.8× final test concentration) of compounds were added in 45 μl volumes to a series of triplicate wells so as to allow simultaneous evaluation of their effects on virus- and mock-infected cells. Five five-fold dilutions were made directly in the microtiter trays using a robot system. Untreated virus controls, and HeLa cell controls were included in each test. Approximately 100 TCID50 of Respiratory Syncytial Virus was added to two of the three rows in a volume of 50 μl. The same volume of medium was added to the third row to measure the cytotoxicity of the compounds at the same concentrations as those used to measure the antiviral activity. After two hours of incubation, a suspension (4×10^5 cells/ml) of HeLa cells was added to all wells in a volume of 50 μl. The cultures were incubated at 37° C. in a 5% CO2 atmosphere. Seven days after infection the cytotoxicity and the antiviral activity was examined spectrophotometrically. To each well of the microtiter tray, 25 μl of a solution of MTT (3-(4,5-dimethylthiazol-2-yl)-2,5-diphenyltetrazolium bromide) was added. The trays were further incubated at 37° C. for 2 hours, after which the medium was removed from each cup. Solubilization of the formazan crystals was achieved by adding 100 μl 2-propanol. Complete dissolution of the formazan crystals were obtained after the trays have been placed on a plate shaker for 10 min. Finally, the absorbances were read in an eight-channel computer-controlled photometer (Multiskan MCC, Flow Laboratories) at two wavelengths (540 and 690 nm). The absorbance measured at 690 nm was automatically subtracted from the absorbance at 540 nm, so as to eliminate the effects of non-specific absorption.
row,SMILES,Activity
1,CCOC(=O)c1ccc2nc(NC3CCNCC3)n(Cc3nc(C)ccc3O)c2c1 [Compound 141],C (pEC50 value equal to or below 6)
2,CCOC(=O)c1ccc2nc(NC3CCN(Cc4ccccc4)CC3)n(Cc3nc(C)ccc3O)c2c1 [Compound 142],C (pEC50 value equal to or below 6)

# Same assay, conditions: human respiratory syncytial virus, 168 h; protection against RSV cytopathology in HeLa cells, 7 days after infection; pEC50 = −log of EC50 in molar units
row,pEC50,SMILES
1,7.80,"Cc1cccc(CNc2ccc3nc(NC4CCN(C)CC4)n(Cc4nc(C)ccc4O)c3c2)c1 [Compound 28, 6-methyl-2-[6-(3-methyl-benzylamino)-2-(1-methyl-piperidin-4-ylamino)-benzoimidazol-1-ylmethyl]-pyridin-3-ol]"
2,6.60,"Cc1cccc(SCc2ccc3nc(NC4CCN(C)CC4)n(Cc4nc(C)ccc4O)c3c2)c1 [Compound 93, 6-methyl-2-[2-(1-methyl-piperidin-4-ylamino)-6-m-tolylsulfanylmethyl-benzoimidazol-1-ylmethyl]-pyridin-3-ol]"

# Same assay, conditions: protection against RSV cytopathology in HeLa cells, 7 days after infection; pEC50 = −log of EC50 in molar units
row,SMILES,Activity
1,Cc1ccc(/C=C/c2ccc3nc(NC4CCN(C)CC4)n(Cc4nc(C)ccc4O)c3c2)cc1 [Compound 128],<4
2,Cc1cccc(NCc2ccc3c(c2)nc(NC2CCN(C)CC2)n3Cc2nc(C)ccc2O)c1 [Compound 130],4.6
3,Cc1ccc(O)c(Cn2c(NC3CCN(C)CC3)nc3cc(CNc4ccccc4)ccc32)n1 [Compound 131],<4
4,Cc1cccc(SCc2ccc3c(c2)nc(NC2CCN(C)CC2)n3Cc2nc(C)ccc2O)c1 [Compound 132],<4
5,Cc1ccc(O)c(Cn2c(NC3CCN(C)CC3)nc3ccc(C(=O)NCc4ccccn4)cc32)n1 [Compound 134],<4
6,Cc1ccc(O)c(Cn2c(NC3CCN(C)CC3)nc3cc(C(=O)NCc4ccccn4)ccc32)n1 [Compound 135],<4
7,Cc1ccc(O)c(Cn2c(NC3CCN(C)CC3)nc3ccc(C(=O)NCCc4ccccc4)cc32)n1 [Compound 136],<4
8,Cc1ccc(O)c(Cn2c(NC3CCN(C)CC3)nc3ccc(CN(CCC#N)CCC#N)cc32)n1 [Compound 137],<4
9,CCOC(=O)c1ccc2c(c1)nc(NC1CCNCC1)n2Cc1nc(C)ccc1O [Compound 139],5.1
10,CCOC(=O)c1ccc2c(c1)nc(NC1CCN(Cc3ccccc3)CC1)n2Cc1nc(C)ccc1O [Compound 140],<4
11,Cc1cccc(/C=C/c2ccc3c(c2)nc(NC2CCN(CCN)CC2)n3Cc2nc(C)ccc2O)c1.Cl [Compound 147],8.8
12,Cc1cc(C)cc(NCc2ccc3nc(NC4CCN(CCO)CC4)n(Cc4nc(C)ccc4O)c3c2)c1 [Compound 149],8.8
13,Cc1cccc(NCc2ccc3nc(NC4CCN(CCCO)CC4)n(Cc4nc(C)ccc4O)c3c2)c1 [Compound 156],8.4
14,Cc1ccc(O)c(Cn2c(NC3CCN(CCN)CC3)nc3cc(CCc4ccccc4)ccc32)n1.Cl [Compound 157],7.9
15,Cc1cccc(CCc2ccc3c(c2)nc(NC2CCN(CCN)CC2)n3Cc2nc(C)ccc2O)c1.Cl [Compound 158],7.9
16,Cc1ccc(O)c(Cn2c(NC3CCN(CCO)CC3)nc3ccc(CNc4cccc(O)c4)cc32)n1 [Compound 159],7.9
17,Cc1ccc(O)c(Cn2c(NC3CCN(CCO)CC3)nc3ccc(CCC#N)cc32)n1 [Compound 161],7.8
18,Cc1ccc(O)c(Cn2c(NC3CCN(CCO)CC3)nc3ccc(CCc4ccccc4)cc32)n1 [Compound 162],7.5
19,Cc1ccc(O)c(Cn2c(NC3CCN(CCC(N)=O)CC3)nc3ccc(CCc4ccccc4)cc32)n1 [Compound 163],7.2
20,Cc1cc(C)cc(NCc2ccc3nc(NC4CCN(Cc5ccccc5)CC4)n(Cc4nc(C)ccc4O)c3c2)c1 [Compound 164],7.2
21,Cc1ccc(O)c(Cn2c(NC3CCN(Cc4ccccc4)CC3)nc3ccc(CNc4cc(Cl)cc(Cl)c4)cc32)n1 [Compound 165],7.1

row,SMILES,Activity
1,Cc1ccc(O)c(Cn2c(NC3CCN(CCC(N)=O)CC3)nc3cc(C=Cc4ccccc4)ccc32)n1 [Compound 166],6.8
2,Cc1cccc(NCc2ccc3nc(NC4CCN(Cc5ccccc5)CC4)n(Cc4nc(C)ccc4O)c3c2)c1 [Compound 167],6.8
3,Cc1ccc(O)c(Cn2c(NC3CCN(CCO)CC3)nc3cc(CCc4ccccc4)ccc32)n1 [Compound 168],6.6
4,Cc1ccc(O)c(Cn2c(NC3CCN(CCO)CC3)nc3ccc(C=Cc4ccccc4)cc32)n1 [Compound 169],6.6
5,Cc1ccc(O)c(Cn2c(NC3CCN(CCC(N)=O)CC3)nc3cc(CCc4ccccc4)ccc32)n1 [Compound 170],5.7
6,Cc1cc(C)cc(NCc2cc(C)c3nc(NC4CCN(CCO)CC4)n(Cc4nc(C)ccc4O)c3c2)c1 [Compound 172],8.5
7,Cc1cc(C)cc(NCc2ccc3c(c2)nc(NCCCN2CCCCC2)n3Cc2nc(C)ccc2O)c1 [Compound 176],7.2
8,Cc1ccc(O)c(Cn2c(NCCCN3CCCCC3)nc3ccc(CO)cc32)n1 [Compound 177],7.1
9,Cc1ccc(O)c(Cn2c(NCCCN3CCN(C)CC3)nc3ccc(CO)cc32)n1 [Compound 178],6.5
10,Cc1cc(C)cc(NCc2ccc3c(c2)nc(NCCCN2CCN(C)CC2)n3Cc2nc(C)ccc2O)c1 [Compound 179],6.2
11,Cc1cc(C)cc(NCc2ccc3c(c2)nc(NCC(O)CO)n3Cc2nc(C)ccc2O)c1 (centres unmarked) [Compound 180],5.6
12,Cc1ccc(O)c(Cn2c(NCCCN3CCCCC3)nc3cc(CO)ccc32)n1 [Compound 182],5
13,Cc1ccc(O)c(Cn2c(NCCCN3CCN(C)CC3)nc3cc(CO)ccc32)n1 [Compound 183],5
14,Cc1cc(C)cc(NCc2ccc3nc(NCC4COC(C)(C)O4)n(Cc4nc(C)ccc4O)c3c2)c1 (centres unmarked) [Compound 184],<4
15,Cc1ccc(O)c(Cn2c(NCCc3ccccc3)nc3cc(CO)ccc32)n1 [Compound 185],<4
16,Cc1cc(C)cc(NCc2ccc3c(c2)nc(NCCc2ccccc2)n3Cc2nc(C)ccc2O)c1 [Compound 186],<4
17,Cc1cc(C)cc(NCc2ccc3nc(NCCc4ccccc4)n(Cc4nc(C)ccc4O)c3c2)c1 [Compound 187],<4
18,Cc1ccc(O)c(Cn2c(NCCc3ccccc3)nc3ccc(CO)cc32)n1 [Compound 188],4.4
19,COc1ccc(CCNc2nc3cc(CO)ccc3n2Cc2nc(C)ccc2O)cc1 [Compound 189],<4
20,COc1ccc(CCNc2nc3cc(CNc4cc(C)cc(C)c4)ccc3n2Cc2nc(C)ccc2O)cc1 [Compound 191],<4
21,Cc1ccc(O)c(Cn2c(NCCc3ccccc3)nc3ccc(CNc4cc(Cl)cc(Cl)c4)cc32)n1 [Compound 192],<4

# System: not given
# Assay: not given
# Conditions: not given
row,melting point [°C],SMILES
1,> 260,"Cc1ccc(O)c(Cn2c(NC3CCN(CCN)CC3)nc3ccc(C=Cc4ccccc4)cc32)n1.Cl (hydrate or solvate) [Compound 146, 2-{2-[1-(2-Amino-ethyl)-piperidin-4-ylamino]-6-styryl-benzoimidazol-1-ylmethyl}-6-methyl-pyridin-3-ol hydrochloride salt]"
2,240,"Cc1cccc(CNc2ccc3nc(NC4CCN(C)CC4)n(Cc4nc(C)ccc4O)c3c2)c1 [Compound 28, 6-methyl-2-[6-(3-methyl-benzylamino)-2-(1-methyl-piperidin-4-ylamino)-benzoimidazol-1-ylmethyl]-pyridin-3-ol]"
3,202,"Cc1cccc(SCc2ccc3nc(NC4CCN(C)CC4)n(Cc4nc(C)ccc4O)c3c2)c1 [Compound 93, 6-methyl-2-[2-(1-methyl-piperidin-4-ylamino)-6-m-tolylsulfanylmethyl-benzoimidazol-1-ylmethyl]-pyridin-3-ol]"
4,137,"Cc1cccc(C(N)c2ccc3nc(NC4CCN(CCO)CC4)n(Cc4nc(C)ccc4O)c3c2)c1 (centres unmarked) [Compound 148, 2-[2-[1-(2-hydroxy-ethyl)-piperidin-4-ylamino]-6-(m-tolyl-amino-methyl)-benzoimidazol-1-ylmethyl]-6-methyl-pyridin-3-ol]"
